The text below walks through data of patent US20240246981A1, “[…] DERIVATIVES AS INHIBITORS OF […]-PEPTIDE CYCLOTRANSFERASE AND […]-PEPTIDE CYCLOTRANSFERASE LIKE PROTEIN” (Boehringer Ingelheim International GmbH, priority 2022, published 2024).

Usually Papp A→B stands for how fast a substance crosses the layer from the apical side. Read a low Papp A→B as poor permeation. A word on the efflux ratio: it is the permeability from basolateral to apical divided by that in the opposite direction, in the common usage. By IC50 is commonly meant the point on the concentration scale where inhibition reaches its midpoint.

A short description of series [1]: Assay C: permeability in CACO-2 cells. It is filed as in vitro ADME. The settings on record: human, pH 7.2, compounds of the invention, Table 7; for Papp A→B: Caco-2, apical to basolateral; for efflux ratio: Caco-2. How it is done: Compounds are dissolved in appropriate solvent (like DMSO, 1-20 mM stock solutions). […] The transport solution (TL) is applied to the apical or basolateral donor side for measuring A-B or B-A permeability (3 filter replicates), respectively. Samples are collected at the start and end of experiment from the donor and at various time intervals for up to 2 hours also from the receiver side for concentration measurement by HPLC-MS/MS or scintillation counting. Sampled receiver volumes are replaced with fresh receiver solution.

Series [2] concerns SIRPα signalling induced by A549 cells. The series can be described thus: Assay B: SIRPα signalling assay using A549 cells. It is filed as cell-based, human. The following applies: Homo sapiens, compounds of the invention, Table 4, read-out: Inhibition of SIRα signalling induced by A549 cells: IC50. How it is done:
Two cell types are independently used: the Raji cell line (lymphoblastlike human cell line derived from B lymphocytes from a Burkitt's lymphoma patient in 1963) and A549 cells (adenocarcinomic human alveolar basal epithelial cells).
Test compounds were dissolved in 100% DMSO and serially diluted into a white 384-well microtiter cell culture plate (PerkinElmer #60076780 in case of Raji assay; PDL-coated plates Greiner #781945 in case of A549 assay). 5000 Raji cells (ATCC #CC86) or 5000 A549 cells (ATCC #CCL-185) in Assay Complete Cell Plating reagent 30 (DiscoverX 93-0563R30B) were added per well. The assay plate was incubated for 48 h at 37° C., 95% humidity and 5% CO2. 15000 reporter cells (Jurkat PathHunter SIRPα V1, DiscoverX #93-1135C19) were added to each well, and the plate was incubated for 5 h at 37° C., 95% humidity and 5% CO2. Bioassay reagent 1 of the PathHunter Bioassay detection kit (DiscoverX 93-0001) was added to each well of the plate using a multichannel pipette followed by a 15 min incubation at room temperature. Afterwards bioassay reagent 2 was added followed by 60 min incubation at room temperature (incubation in the dark).
The analysis of the data was performed using the luminescence signal generated by beta-galactosidase in the PathHunter reporter cell line. The luminescence measurement was done using a Pherastar Multi-Mode Reader. Dose-response curves & IC50 data were calculated with 4-parameter sigmoidal dose response formula.

Series [3] addresses QPCTL (Homo sapiens (Human), UniProt Q9NXS2). The series can be described thus: Assay A: biochemical QPCTL activity assay (MALDI-TOF MS). The following applies: compounds of the invention, Table 2; read-out: Inhibition of QPCTL: IC50. How it is done:
(§1) QPCT or QPCTL dependent conversion of N-terminal glutamine to pyroglutamate of CD47 was monitored via MALDI-TOF MS. Test compounds were dissolved in 100% DMSO and serially diluted into clear 1,536-well microtiter plates. Enzymatic reactions were set up in assay buffer containing 20 mM Tris pH 7.5, 0.1 mM TCEP, 0.01% BSA, and 0.001% Tween20. […] The plates were incubated for 10 min in a humidified incubator at 24° C. Subsequently, 2.5 μL of CD47 peptide substrate surrogate (^19[…]^33) was added to each well (final concentration: 10 μM for QPCTL/20 μM for QPCT). The plates were mixed for 30 sec at 1,000 rpm and subsequently incubated for 40 min in a humidified incubator at 24° C. […] The plates were sealed with an adhesive foil, mixed for 30 s at 1,000 rpm and stored at room temperature until preparation of the MALDI target plates. […] QPCT or QPCTL activity was monitored by calculating the ratio between product and internal standard signals followed by normalization to high (100% activity) and low (0% activity) controls. Determination of compound potencies was obtained by fitting the dose-response data to a four-parameter logistical equation.

Series [4] deals with SIRPα signalling induced by Raji cells. The series can be described thus: Assay B: SIRPα signalling assay using Raji cells. It is filed as cell-based, human. The following applies: Homo sapiens, compounds of the invention, Table 4, read-out: Inhibition of SIRα signalling induced by Raji cells: IC50. How it is done: Bioassay reagent 1 of the PathHunter Bioassay detection kit (DiscoverX 93-0001) was added to each well of the plate using a multichannel pipette followed by a 15 min incubation at room temperature. Afterwards bioassay reagent 2 was added followed by 60 min incubation at room temperature (incubation in the dark).
The analysis of the data was performed using the luminescence signal generated by beta-galactosidase in the PathHunter reporter cell line. The luminescence measurement was done using a Pherastar Multi-Mode Reader.

For series [5], the target named is QPCT (Homo sapiens (Human), UniProt Q16769). Kind of series: Assay A: biochemical QPCT activity assay (MALDI-TOF MS). The settings on record: compounds of the invention, Table 2; read-out: Inhibition of QPCT: IC50. How it is done: as §1
Chain of QPCT (Q16769 29-361): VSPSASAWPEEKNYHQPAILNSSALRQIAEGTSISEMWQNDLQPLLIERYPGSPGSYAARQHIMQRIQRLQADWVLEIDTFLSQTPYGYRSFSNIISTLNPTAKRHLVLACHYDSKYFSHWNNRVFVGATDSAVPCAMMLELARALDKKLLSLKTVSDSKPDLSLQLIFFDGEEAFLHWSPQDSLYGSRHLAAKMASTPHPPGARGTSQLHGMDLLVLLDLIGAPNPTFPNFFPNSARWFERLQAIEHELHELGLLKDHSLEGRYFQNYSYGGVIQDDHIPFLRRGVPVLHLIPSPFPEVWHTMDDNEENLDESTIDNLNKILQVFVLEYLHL

Chain of QPCTL (Q9NXS2 whole entry): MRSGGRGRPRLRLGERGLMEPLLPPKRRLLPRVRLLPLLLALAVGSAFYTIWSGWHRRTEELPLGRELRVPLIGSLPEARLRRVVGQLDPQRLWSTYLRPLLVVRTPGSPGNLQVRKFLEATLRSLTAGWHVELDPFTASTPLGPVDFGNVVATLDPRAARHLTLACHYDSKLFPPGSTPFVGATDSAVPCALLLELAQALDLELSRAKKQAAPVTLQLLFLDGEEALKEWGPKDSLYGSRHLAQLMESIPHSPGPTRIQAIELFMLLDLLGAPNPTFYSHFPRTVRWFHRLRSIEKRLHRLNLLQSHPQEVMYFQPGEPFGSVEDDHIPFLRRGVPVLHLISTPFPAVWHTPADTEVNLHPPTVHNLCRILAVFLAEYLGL

The molecule `Cn1cnnc1C1CCN(c2c(C#N)cccc2-c2cnc3nsnc3c2)CC1` [compound 43] gave a Papp A→B in series [1] of 2.2 ×10⁻⁶ cm/s. In addition, the efflux ratio in series [1] turned out to be 22.3. The IC50 in series [2] is 271 nM; in series [3], 3 nM; in series [4] it was 342 nM; in series [5], 28 nM.

In series [1], `COc1cc(F)ncc1-c1cccc(C#N)c1N1CCC(c2nncn2C)CC1` [compound 44] registered a Papp A→B of 11 ×10⁻⁶ cm/s. Further, in series [1], the efflux ratio amounted to 1.5. Further, the 50% inhibitory concentration (IC50) stood at 121 nM in series [2], 4 nM in series [3], 109 nM in series [4] and 18 nM in series [5].

In series [1], `Cn1nc2cc(-c3cccc(C#N)c3N3CCC(c4nncn4C)CC3)cnc2n1` [compound 45] showed a Papp A→B of 0.8 ×10⁻⁶ cm/s. For the same molecule, the efflux ratio in series [1] turned out to be 31.6. Further, the IC50 in series [2] stood at 173 nM; in series [3], 4 nM; in series [4], 140 nM; in series [5], 26 nM.

The molecule `Cc1c(-c2cccc(C#N)c2N2CCC(c3nncn3C)CC2)cncc1-n1cccn1` [compound 46] yielded a Papp A→B in series [1] of 6.8 ×10⁻⁶ cm/s. For the same molecule, in series [1], the efflux ratio was determined as 2.5. Also, the 50% inhibitory concentration (IC50) is 71 nM in series [2], 2 nM in series [3], 97 nM in series [4] and 13 nM in series [5].

On to `Cn1cnnc1C1CCN(c2c(C#N)cccc2-c2cnc(F)c(OC3CC3)c2)CC1` [compound 47], for which the apparent permeability from apical to basolateral (Papp A→B) in series [1] is 13 ×10⁻⁶ cm/s. Also, the efflux ratio in series [1] was 6. Besides, the IC50 in series [2] was determined as 53 nM; in series [3], 2 nM; in series [4], 77 nM; in series [5] it was 8 nM.

The molecule `COc1cc(-c2cccc(C#N)c2N2CCC(c3nncn3C)CC2)cnn1` [compound 48] yielded a Papp A→B in series [1] of 1.1 ×10⁻⁶ cm/s. Also, the efflux ratio in series [1] came to 21.8. In addition, the IC50 in series [2] worked out at 674 nM; in series [3] it was 7 nM; in series [4] it was 446 nM; in series [5], 22 nM.

On to `COc1cc(-c2cccc(C#N)c2N2CCC(c3nncn3C)CC2)cnc1F` [compound 49], for which the apical-to-basolateral permeability (Papp A→B) in series [1] is 18 ×10⁻⁶ cm/s. In addition, in series [1], the efflux ratio is 3.6. For the same molecule, the half-inhibitory concentration (IC50) in series [2] came out at 56 nM; in series [3], 2 nM; in series [4], 63 nM; in series [5], 9 nM.

`Cn1cnnc1C1CCN(c2c(C#N)cccc2-c2cnc3nn(C(C)(C)C)cc3c2)CC1` [compound 50] registered a Papp A→B in series [1] of 0.5 ×10⁻⁶ cm/s. Moreover, the efflux ratio in series [1] is 75.5. Also, the IC50 in series [2] was 33 nM; in series [3], 1 nM; in series [4] it was 21 nM; in series [5], 1 nM.

`Cc1cc(C)n(-c2cncc(-c3cccc(C#N)c3N3CCC(c4nncn4C)CC3)c2)n1` [compound 51] showed an apical-to-basolateral permeability (Papp A→B) in series [1] of 3.4 ×10⁻⁶ cm/s. Also, the efflux ratio in series [1] is 12.9. The IC50 stood at 52 nM in series [2], 2 nM in series [3], 148 nM in series [4] and 8 nM in series [5].

Consider `Cn1cnnc1C1(F)CCN(c2c(C#N)cccc2-c2ccnnc2)CC1` [compound 52], for which the Papp A→B in series [1] came to 15 ×10⁻⁶ cm/s. Moreover, in series [1], the efflux ratio was 1.1. Further, the concentration for half-maximal inhibition (IC50) in series [2] is 16 nM; in series [3], 2 nM; in series [4], 67 nM; in series [5] it was 3 nM.

With `COc1cc(-c2cccc(C#N)c2N2CCC(F)(c3nncn3C)CC2)cnc1F` [compound 53], the apparent permeability from apical to basolateral (Papp A→B) in series [1] stood at 35 ×10⁻⁶ cm/s. For the same molecule, the efflux ratio in series [1] came out at 1.3. Also, the 50% inhibitory concentration (IC50) amounted to 22 nM in series [2], 1 nM in series [3], 81 nM in series [4] and 3 nM in series [5].

On to `Cn1cnnc1C1(F)CCN(c2c(C#N)cccc2-c2ccc(F)nc2)CC1` [compound 56], for which, in series [1], the Papp A→B was 50 ×10⁻⁶ cm/s. For the same molecule, the efflux ratio in series [1] came out at 0.7. In addition, the concentration for half-maximal inhibition (IC50) in series [2] worked out at 7 nM; in series [3], 1 nM; in series [4] it was 29 nM; in series [5] it was 3 nM.

On to `Cn1cnnc1C1CCN(c2c(C#N)cccc2-c2cnn3ncccc23)CC1` [compound 57], for which the Papp A→B in series [1] worked out at 3.9 ×10⁻⁶ cm/s. The efflux ratio in series [1] amounted to 11. The IC50 came out at 244 nM in series [2], 5 nM in series [3], 442 nM in series [4] and 11 nM in series [5].

In series [1], `Cn1cnnc1C1(F)CCN(c2c(C#N)cccc2-c2cnc(=O)n(Cc3ccccc3)c2)CC1` [compound 59] registered an apparent permeability from apical to basolateral (Papp A→B) of 0.4 ×10⁻⁶ cm/s. Besides, in series [1], the efflux ratio is 34.1. In addition, the IC50 in series [2] stood at 619 nM; in series [3], 2 nM; in series [4] it was 746 nM; in series [5], 8 nM.

`Cn1cnnc1C1(F)CCN(c2c(C#N)cccc2-c2cnc3nn(C(C)(C)C(F)(F)F)cc3c2)CC1` [compound 61]: the apical-to-basolateral permeability (Papp A→B) in series [1] was determined as 8 ×10⁻⁶ cm/s. Moreover, the efflux ratio in series [1] was 8.9. Also, the IC50 in series [2] worked out at 22 nM; in series [3], 2 nM; in series [4], 23 nM; in series [5], 1 nM.

In turn, `Cn1cnnc1C1(F)CCN(c2c(C#N)cccc2-c2cnc3nn(C(C)(C)C)cc3c2)CC1` [compound 62] yielded a Papp A→B in series [1] of 4.9 ×10⁻⁶ cm/s. In series [1], the efflux ratio was found to be 19. The IC50 in series [2] worked out at 11 nM; in series [3], 1 nM; in series [4], 21 nM; in series [5], 1 nM.

For `Cn1cnnc1C1(F)CCN(c2c(C#N)cccc2-c2cnc3nnn(Cc4ccccc4)c3c2)CC1` [compound 63], the Papp A→B in series [1] is 3.3 ×10⁻⁶ cm/s. Also, the efflux ratio in series [1] was determined as 14.5. Besides, the 50% inhibitory concentration (IC50) in series [2] is 9 nM; in series [3], 1 nM; in series [4] it was 13 nM; in series [5] it was 3 nM.

In the case of `Cn1cnnc1C1(F)CCN(c2c(C#N)cccc2-c2cnc3nn(Cc4ccccc4)nc3c2)CC1` [compound 64], the Papp A→B in series [1] worked out at 29 ×10⁻⁶ cm/s. In addition, the efflux ratio in series [1] was determined as 1.2. For the same molecule, the IC50 came out at 19 nM in series [2], 2 nM in series [3], 61 nM in series [4] and 5 nM in series [5].

`Cn1cnnc1C1(C)CCN(c2c(C#N)cccc2-c2ccc(F)nc2)CC1` [compound 66] showed an apical-to-basolateral permeability (Papp A→B) in series [1] of 30 ×10⁻⁶ cm/s. Moreover, the efflux ratio in series [1] was determined as 1.4. Moreover, the IC50 was determined as 14 nM in series [2], 3 nM in series [3], 100 nM in series [4] and 2 nM in series [5].

`Cn1cnnc1C1CCN(c2c(C#N)cccc2-c2cccnc2)CC1` [compound 67] displayed an apical-to-basolateral permeability (Papp A→B) in series [1] of 5.3 ×10⁻⁶ cm/s. In series [1], the efflux ratio stood at 7.4. Also, the 50% inhibitory concentration (IC50) in series [2] turned out to be 58 nM; in series [3], 6 nM; in series [4], 229 nM; in series [5], 24 nM.

On to `Cn1cnnc1C1(F)CCN(c2c(C#N)cccc2-c2cnc3ncccc3c2)CC1` [compound 68], for which the apparent permeability from apical to basolateral (Papp A→B) in series [1] amounted to 0.6 ×10⁻⁶ cm/s. Besides, the efflux ratio in series [1] was 47.5. For the same molecule, the IC50 in series [2] was 274 nM; in series [3] it was 7 nM; in series [4], 366 nM; in series [5], 13 nM.
